Reference: ChEMBL document CHEMBL3875160, “Structure-activity relationship study of peptidomimetic aldehydes as enterovirus 71 3C protease inhibitors” (Eur J Med Chem, 2016)

Experiments:
[1] = Inhibition of EV71 protease 3C expressed in Escherichia coli BL21 using substrate NMA-IEALFQGPPK(DNP)FR preincubated for 30 mins followed by substrate addition measured after 2 hrs; set-up: species or system Enterovirus A71
[2] = Cytotoxicity against human rhabdomyosarcoma cells assessed as decrease in cell viability after 24 hrs by WST-1 assay; type: toxicity, cell-based
[3] = tested on: Enterovirus A71; experiment: Antiviral activity against EV71 FY pseudotype virus infected in human rhabdomyosarcoma cells after 24 hrs by bright-glo luciferase reporter gene assay; type: functional; settings: Enterovirus A

SMILES | IC50 [1] [nM] | Ki [1] [nM] | CC50 at 24 h [2] [nM] | EC50 [3] [nM]
O=C[C@H](C[C@@H]1CCCNC1=O)NC(=O)[C@H](Cc1ccccc1)NC(=O)/C=C/c1ccccc1 | 540 | 370 | > 100000 | –
Cc1cc(C(=O)N[C@@H](Cc2ccc(F)cc2)C(=O)N[C@H](C=O)C[C@@H]2CCCNC2=O)no1 | 100 | 70 | > 100000 | –
O=C[C@H](C[C@@H]1CCCNC1=O)NC(=O)[C@H](Cc1ccc(F)cc1)NC(=O)/C=C/c1ccc(F)cc1 | 470 | 320 | > 100000 | 260
O=C[C@H](C[C@@H]1CCCNC1=O)NC(=O)[C@H](Cc1ccc(F)cc1)NC(=O)/C=C/c1ccccc1 | 440 | 300 | > 100000 | 200
O=C[C@H](C[C@@H]1CCCNC1=O)NC(=O)[C@H](Cc1ccccc1)NC(=O)Cc1ccccc1 | 700 | 480 | > 100000 | 540
COc1cc(/C=C/C(=O)N[C@@H](Cc2ccccc2)C(=O)N[C@H](C=O)C[C@@H]2CCCNC2=O)cc(OC)c1OC | 7270 | 4970 | > 100000 | 6100
CCCC(=O)N[C@@H](Cc1ccccc1)C(=O)N[C@H](C=O)C[C@@H]1CCCNC1=O | 7680 | 5250 | > 100000 | 4060
O=C[C@H](C[C@@H]1CCCNC1=O)NC(=O)[C@H](CC1CCCCC1)NC(=O)/C=C/c1ccccc1 | 1190 | 810 | > 100000 | 1040
O=C[C@H](C[C@@H]1CCCNC1=O)NC(=O)[C@H](Cc1ccccc1)NC(=O)c1ccco1 | 1100 | 750 | > 100000 | 850
O=C[C@H](C[C@@H]1CCCNC1=O)NC(=O)[C@H](Cc1ccccc1)NC(=O)c1ccc(-c2ccccc2)cc1 | 1930 | 1320 | > 100000 | 910
O=C[C@H](C[C@@H]1CCCNC1=O)NC(=O)[C@H](Cc1ccccc1)NC(=O)/C=C/c1ccc(F)cc1 | 590 | 400 | > 100000 | 320
CC(C)[C@H](NC(=O)/C=C/c1ccccc1)C(=O)N[C@H](C=O)C[C@@H]1CCCNC1=O | 5680 | 3880 | > 100000 | 16700
O=C[C@H](C[C@@H]1CCCNC1=O)NC(=O)[C@H](Cc1ccccc1)NC(=O)c1ccncc1 | 1420 | 970 | > 100000 | 8600
COc1ccc(/C=C/C(=O)N[C@@H](Cc2ccccc2)C(=O)N[C@H](C=O)C[C@@H]2CCCNC2=O)cc1OC | 1580 | 1080 | > 100000 | 1380
CCCCCC(=O)N[C@@H](Cc1ccccc1)C(=O)N[C@H](C=O)C[C@@H]1CCCNC1=O | 13600 | 9270 | > 100000 | 6450
COc1ccc(/C=C/C(=O)N[C@@H](Cc2ccc(F)cc2)C(=O)N[C@H](C=O)C[C@@H]2CCCNC2=O)cc1 | 410 | 280 | > 100000 | 180
O=C[C@H](C[C@@H]1CCCNC1=O)NC(=O)[C@H](Cc1ccccc1)NC(=O)c1cccs1 | 420 | 290 | > 100000 | 210
O=C[C@H](C[C@@H]1CCCNC1=O)NC(=O)[C@H](Cc1ccccc1)NC(=O)CCc1ccccc1 | 750 | 510 | > 100000 | 570
O=C[C@H](C[C@@H]1CCCNC1=O)NC(=O)[C@H](Cc1ccc(F)cc1)NC(=O)c1cccs1 | 290 | 200 | > 100000 | 160
COc1ccc(/C=C/C(=O)N[C@@H](Cc2ccccc2)C(=O)N[C@H](C=O)C[C@@H]2CCCNC2=O)cc1 | 490 | 330 | > 100000 | 230
CC(C)C[C@H](NC(=O)/C=C/c1ccccc1)C(=O)N[C@H](C=O)C[C@@H]1CCCNC1=O | 2780 | 1900 | > 100000 | 2360
O=C[C@H](C[C@@H]1CCCNC1=O)NC(=O)[C@H](Cc1ccccc1)NC(=O)c1cccnc1 | 440 | 300 | > 100000 | 3550
Cc1cc(C(=O)N[C@@H](Cc2ccccc2)C(=O)N[C@H](C=O)C[C@@H]2CCCNC2=O)no1 | 220 | 220 | > 100000 | 180
O=C[C@H](C[C@@H]1CCCNC1=O)NC(=O)[C@H](Cc1ccccc1)NC(=O)c1ccccc1 | 550 | 380 | > 100000 | 380
